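Compound exposure: 48 hours, 5 concentrations, 96-well plates. At the GI50, growth is halved.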 Activity calls are given as the source filed them. No stated cut-off is given here; in the data, active = GI50 up to about 1.1 µM and inactive = higher. Square brackets hold non-standard residues; d marks the D form. Peptide text beside a SMILES is read from it. * marks the point of attachment. Phe(4-NO2) = N[CH](Cc1ccc([N+](=O)[O-])cc1)C(=O)O; Boc = CC(C)(C)OC(=O)*
Assays:
Assay in all cases: NCI-60 cell line screen, 48 h
[1] = test system: EKVX
[2] = test system: NCI-H23
[3] = test system: SNB-19
[4] = test system: SW-620
[5] = test system: T47D
[6] = test system: HCT-116
[7] = test system: MOLT-4
[8] = test system: MDA-MB-231
[9] = test system: MDA-MB-435
[10] = test system: SK-MEL-2
[11] = test system: SF-295
[12] = test system: HT-29
[13] = test system: RPMI-8226
[14] = test system: PC-3
[15] = test system: UACC-257
[16] = test system: SK-MEL-28
[17] = test system: U-251
[18] = test system: OVCAR-8
[19] = test system: SK-MEL-5

Compound	GI50 [1]	GI50 [2]	GI50 [3]	GI50 [4]	GI50 [5]	GI50 [6]	GI50 [7]	GI50 [8]	GI50 [9]	GI50 [10]	GI50 [11]	GI50 [12]	GI50 [13]	GI50 [14]	GI50 [15]	GI50 [16]	GI50 [17]	GI50 [18]	GI50 [19]
O=[N+]([O-])/C(C(Cl)=C(Cl)Cl)=C(\Nc1cccc2cccnc12)SCc1ccccc1	21.1 µM (inactive)	17 µM (inactive)	16.7 µM (inactive)	18.4 µM (inactive)	17.7 µM (inactive)	19.8 µM (inactive)	2.21 µM (inactive)	27.3 µM (inactive)	21 µM (inactive)	12.6 µM (inactive)	18.7 µM (inactive)	23.6 µM (inactive)	22.3 µM (inactive)	14.8 µM (inactive)	21.5 µM (inactive)	19 µM (inactive)	16.1 µM (inactive)		
C/C(=C/CC[C@](C)(OC1OC(CO)C(O)C(O)C1OC1OC(C)C(O)C(O)C1O)[C@H]1CC[C@]2(C)[C@@H]1CC[C@@H]1[C@@]3(C)CC[C@H](O)C(C)(C)[C@@H]3C[C@H](O)[C@]12C)CO (some centres undefined)	> 100 µM (inactive)	> 100 µM (inactive)	> 100 µM (inactive)	> 100 µM (inactive)	> 100 µM (inactive)	> 100 µM (inactive)	> 100 µM (inactive)	> 100 µM (inactive)	> 100 µM (inactive)		> 100 µM (inactive)	> 100 µM (inactive)	> 100 µM (inactive)	> 100 µM (inactive)	> 100 µM (inactive)	> 100 µM (inactive)	> 100 µM (inactive)	> 100 µM (inactive)	> 100 µM (inactive)
Cc1ccc(Nc2nc(=O)[nH]c(=O)[nH]2)cc1N	> 100 µM (inactive)	> 100 µM (inactive)	> 100 µM (inactive)	30.8 µM (inactive)	> 100 µM (inactive)	> 100 µM (inactive)		> 100 µM (inactive)	26.5 µM (inactive)	> 100 µM (inactive)	> 100 µM (inactive)	> 100 µM (inactive)	> 100 µM (inactive)	> 100 µM (inactive)	> 100 µM (inactive)	32.7 µM (inactive)	27.5 µM (inactive)	> 100 µM (inactive)	> 100 µM (inactive)
O=C(Oc1c(I)ccccc1=O)c1ccc([N+](=O)[O-])cc1	12.4 µM (inactive)	42.4 µM (inactive)	20.4 µM (inactive)	30.1 µM (inactive)	0.0785 µM (active)	26.1 µM (inactive)		23.3 µM (inactive)	19.4 µM (inactive)	20.5 µM (inactive)	23.2 µM (inactive)	12.3 µM (inactive)	23.2 µM (inactive)	27.4 µM (inactive)	17 µM (inactive)	8.09 µM (inactive)	16.8 µM (inactive)	22.3 µM (inactive)	0.51 µM (active)
CO[C@]12C#CC=CC#C[C@@H](O)[C@]3(CCC1)O[C@@]23c1cccc(O)c1		> 100 µM (inactive)	51.3 µM (inactive)	> 100 µM (inactive)	> 100 µM (inactive)	> 100 µM (inactive)	54.8 µM (inactive)	> 100 µM (inactive)	> 100 µM (inactive)	> 100 µM (inactive)	> 100 µM (inactive)		> 100 µM (inactive)	> 100 µM (inactive)	> 100 µM (inactive)	> 100 µM (inactive)	> 100 µM (inactive)	> 100 µM (inactive)	
Nc1ccccc1C(=O)CCc1c[nH]c2ccccc12	48.3 µM (inactive)		92.3 µM (inactive)	> 100 µM (inactive)	5.53 µM (inactive)	> 100 µM (inactive)	> 100 µM (inactive)	> 100 µM (inactive)	> 100 µM (inactive)	> 100 µM (inactive)	19.4 µM (inactive)	> 100 µM (inactive)	> 100 µM (inactive)	> 100 µM (inactive)	> 100 µM (inactive)	> 100 µM (inactive)	27.4 µM (inactive)	> 100 µM (inactive)	
CNC(=O)CCC(NC(=O)OC(C)(C)C)C(=O)NC(Cc1ccc([N+](=O)[O-])cc1)C(=O)NCC(=O)NC (centres undefined) (Boc-Glu(NHMe)-[Phe(4-NO2)]-Gly-NHMe; configuration not given here)	> 100 µM (inactive)	> 100 µM (inactive)	> 100 µM (inactive)	> 100 µM (inactive)	> 100 µM (inactive)	> 100 µM (inactive)	> 100 µM (inactive)	> 100 µM (inactive)	> 100 µM (inactive)		> 100 µM (inactive)	> 100 µM (inactive)	> 100 µM (inactive)	> 100 µM (inactive)		> 100 µM (inactive)	> 100 µM (inactive)	> 100 µM (inactive)	> 100 µM (inactive)
NCCO/C=C/C(N)C(=O)O (centres undefined) [AMINOETHOXYVINYLGLYCINE]	> 100 µM (inactive)	> 100 µM (inactive)	> 100 µM (inactive)	> 100 µM (inactive)	> 100 µM (inactive)	> 100 µM (inactive)		> 100 µM (inactive)	> 100 µM (inactive)	> 100 µM (inactive)	> 100 µM (inactive)	> 100 µM (inactive)	> 100 µM (inactive)	> 100 µM (inactive)	> 100 µM (inactive)	> 100 µM (inactive)	> 100 µM (inactive)	> 100 µM (inactive)	> 100 µM (inactive)

Reference: ChEMBL document CHEMBL1201862, “PubChem BioAssay data set” (2004)
